This passage reports pest or weed control results from US20180002320A1, “USE OF MACROCYCLIC PICOLINAMIDES AS FUNGICIDES” (DOW AGROSCIENCES LLC, priority 2014, published 2018).

One experiment has as its system Zymoseptoria tritici. Description: Leaf Blotch of Wheat (SEPTTR) fungicidal activity. The class given is in vivo. Conditions: Low Volume (121.5 g/H). As for the experimental part: Technical grades of materials were dissolved in acetone, which were then mixed with nine volumes of H2O containing 110 ppm Triton X-100. The fungicide solutions were applied onto wheat seedlings using an automated booth sprayer to run-off. All sprayed plants were allowed to air dry prior to further handling. All fungicides were evaluated using the aforementioned method for their activity vs. all target diseases, unless stated otherwise. Wheat leaf blotch and brown rust activity were also evaluated using track spray applications, in which case the fungicides were formulated as EC formulations, containing 0.1% Trycol 5941 in the spray solutions. Wheat plants (variety Yuma) were grown from seed in a greenhouse in 50% mineral soil/50% soil-less Metro mix until the first leaf was fully emerged, with 7-10 seedlings per pot. These plants were inoculated with an aqueous spore suspension of Zymoseptoria tritici either prior to or after fungicide treatments. After inoculation the plants were kept in 100% relative humidity (one day in a dark dew chamber followed by two to three days in a lighted dew chamber at 20° C.) to permit spores to germinate and infect the leaf. The plants were then transferred to a greenhouse set at 20° C. for disease to develop. When disease symptoms were fully expressed on the 1st leaves of untreated plants, infection levels were assessed on a scale of 0 to 100 percent disease severity. Percent disease control was calculated using the ratio of disease severity on treated plants relative to untreated plants.

The test system of another experiment is Puccinia triticina. Description: Wheat Brown Rust (PUCCRT) fungicidal activity. The class given is in vivo. Conditions: Low Volume (121.5 g/H). As for the experimental part:
Technical grades of materials were dissolved in acetone, which were then mixed with nine volumes of H2O containing 110 ppm Triton X-100. The fungicide solutions were applied onto wheat seedlings using an automated booth sprayer to run-off. All sprayed plants were allowed to air dry prior to further handling. All fungicides were evaluated using the aforementioned method for their activity vs. all target diseases, unless stated otherwise. Wheat leaf blotch and brown rust activity were also evaluated using track spray applications, in which case the fungicides were formulated as EC formulations, containing 0.1% Trycol 5941 in the spray solutions. Wheat plants (variety Yuma) were grown from seed in a greenhouse in 50% mineral soil/50% soil-less Metro mix until the first leaf was fully emerged, with 7-10 seedlings per pot. These plants were inoculated with an aqueous spore suspension of Puccinia triticina either prior to or after fungicide treatments. After inoculation the plants were kept in a dark dew room at 22° C. with 100% relative humidity overnight to permit spores to germinate and infect the leaf. The plants were then transferred to a greenhouse set at 24° C. for disease to develop. Fungicide formulation, application and disease assessment followed the procedures as described in the Example A.

[1] abbreviates: 72 h, 3 Day Curative, read-out: SEPTTR 3DC disease control.
The mark [2] stands for this setting: 72 h, 3 Day Curative, read-out: PUCCRT 3DC disease control.
Where [3] appears, read: 24 h, 1 Day Protectant, read-out: SEPTTR 1DP disease control.
The mark [4] stands for this setting: 24 h, 1 Day Protectant, read-out: PUCCRT 1DP disease control.

Where two headings read alike, the source gives them in different places.

Consider `COc1ccc(CO[C@H]2[C@H](C)OC(=O)[C@@H](NC(=O)c3nccc(OC)c3OCOC(C)=O)CCOC[C@@H]2OCc2ccc(OC)cc2)cc1` [Compound 32], for which the pest or weed control at 121.5 g/ha in the experiment with Zymoseptoria tritici (setting [1]) and in the experiment with Puccinia triticina (setting [2]) was under 80% each time.
`COc1ccnc(C(=O)N[C@H]2CCCC[C@@H]3OC(C)(C)O[C@H]3[C@H](C)OC2=O)c1OCOC(C)=O` [Compound 33]: the pest or weed control at 121.5 g/ha was under 80% in the experiment with Zymoseptoria tritici (setting [3]), over 80% in the experiment on Zymoseptoria tritici (setting [1]), over 80% in the experiment on Puccinia triticina (setting [4]) and over 80% in the experiment on Puccinia triticina (setting [2]).
Consider `COc1ccnc(C(=O)N[C@H]2CCCC[C@H](OC)[C@@H](OC3CCCC3)[C@H](C)OC2=O)c1OCOC(C)=O` [Compound 34], for which the pest or weed control at 121.5 g/ha was under 80% with Zymoseptoria tritici (setting [3]), over 80% in the experiment on Zymoseptoria tritici (setting [1]), over 80% in the experiment on Puccinia triticina (setting [4]) and over 80% with Puccinia triticina (setting [2]).
For the compound `COc1ccnc(C(=O)N[C@H]2CCCC[C@H](Oc3ccccc3)[C@@H](OC3CCCC3)[C@H](C)OC2=O)c1OCOC(C)=O` [Compound 36], the pest or weed control at 121.5 g/ha was under 80% in the experiment with Zymoseptoria tritici (setting [3]), under 80% in the experiment on Zymoseptoria tritici (setting [1]), over 80% in the experiment on Puccinia triticina (setting [4]) and over 80% in the experiment on Puccinia triticina (setting [2]).
Regarding `COc1ccnc(C(=O)N[C@H]2CCOC[C@H](Oc3ccccc3)[C@@H](Oc3ccccc3)[C@H](C)OC2=O)c1OCOC(C)=O` [Compound 37], the pest or weed control at 121.5 g/ha with Zymoseptoria tritici (setting [3]), with Zymoseptoria tritici (setting [1]), in the experiment with Puccinia triticina (setting [4]) and in the experiment with Puccinia triticina (setting [2]) was over 80% each time.
With `CCCOC(=O)O[C@H]1CCCC[C@H](NC(=O)c2nccc(OC)c2OCOC(C)=O)C(=O)O[C@@H](C)[C@@H]1OCC(C)C` [Compound 38], the pest or weed control at 121.5 g/ha in the experiment with Zymoseptoria tritici (setting [3]) was over 80%; in the experiment on Zymoseptoria tritici (setting [1]) it was over 80%; in the experiment with Puccinia triticina (setting [4]) it was over 80%; with Puccinia triticina (setting [2]), under 80%.
For the compound `COc1ccnc(C(=O)N[C@H]2CCOC[C@H](OC)[C@@H](Oc3ccccc3)[C@H](C)OC2=O)c1OCOC(C)=O` [Compound 40], the pest or weed control at 121.5 g/ha in the experiment with Zymoseptoria tritici (setting [3]), with Zymoseptoria tritici (setting [1]), in the experiment on Puccinia triticina (setting [4]) and in the experiment on Puccinia triticina (setting [2]) was over 80% in each case.
Consider `CCCO[C@H]1COCC[C@H](NC(=O)c2nccc(OC)c2OCOC(C)=O)C(=O)O[C@@H](C)[C@@H]1Oc1ccccc1` [Compound 41], for which the pest or weed control at 121.5 g/ha in the experiment with Zymoseptoria tritici (setting [3]), in the experiment with Zymoseptoria tritici (setting [1]), with Puccinia triticina (setting [4]) and in the experiment with Puccinia triticina (setting [2]) was over 80% throughout.
In the case of `CCCO[C@H]1[C@H](C)OC(=O)[C@@H](NC(=O)c2nccc(OC)c2OCOC(C)=O)CCOC[C@@H]1Oc1ccccc1` [Compound 42], the pest or weed control at 121.5 g/ha in the experiment with Zymoseptoria tritici (setting [3]) is under 80%; in the experiment on Zymoseptoria tritici (setting [1]) it was under 80%; with Puccinia triticina (setting [4]) it was over 80%; in the experiment with Puccinia triticina (setting [2]), under 80%.
Take `COc1ccnc(C(=O)N[C@H]2CCOC[C@H](OC(=O)C(C)C)[C@@H](Oc3ccccc3)[C@H](C)OC2=O)c1OCOC(C)=O` [Compound 44]: the pest or weed control at 121.5 g/ha in the experiment on Zymoseptoria tritici (setting [3]) is under 80%; in the experiment on Zymoseptoria tritici (setting [1]), under 80%; with Puccinia triticina (setting [4]), over 80%; with Puccinia triticina (setting [2]), over 80%.
With `COc1ccnc(C(=O)N[C@H]2CCOC[C@H](OCC(C)C)[C@@H](Oc3ccccc3)[C@H](C)OC2=O)c1OCOC(C)=O` [Compound 45], the pest or weed control at 121.5 g/ha with Zymoseptoria tritici (setting [3]), in the experiment on Zymoseptoria tritici (setting [1]), in the experiment with Puccinia triticina (setting [4]) and in the experiment with Puccinia triticina (setting [2]) was over 80% throughout.
For `COc1ccnc(C(=O)N[C@H]2CCOC[C@H](Oc3ccccc3)[C@@H](OCC(C)C)[C@H](C)OC2=O)c1OCOC(C)=O` [Compound 46], the pest or weed control at 121.5 g/ha is over 80% in the experiment with Zymoseptoria tritici (setting [3]), under 80% in the experiment with Zymoseptoria tritici (setting [1]), over 80% in the experiment on Puccinia triticina (setting [4]) and under 80% with Puccinia triticina (setting [2]).
With `COc1ccnc(C(=O)N[C@H]2CCOC[C@H](Oc3ccccc3)[C@@H](Oc3ccccc3)[C@H](C)OC2=O)c1OC(C)=O` [Compound 47], the pest or weed control at 121.5 g/ha in the experiment on Zymoseptoria tritici (setting [3]), in the experiment with Zymoseptoria tritici (setting [1]), with Puccinia triticina (setting [4]) and in the experiment with Puccinia triticina (setting [2]) was over 80% in each case.
As to `COc1ccnc(C(=O)N[C@H]2CCOC[C@H](OC)[C@@H](Oc3ccccc3)[C@H](C)OC2=O)c1OC(C)=O` [Compound 48], the pest or weed control at 121.5 g/ha with Zymoseptoria tritici (setting [3]), with Zymoseptoria tritici (setting [1]), in the experiment on Puccinia triticina (setting [4]) and with Puccinia triticina (setting [2]) was over 80% throughout.
`CC(=O)OCOc1cccnc1C(=O)N[C@H]1CCCC[C@H](CC2CCCC2)[C@@H](Oc2ccccc2)[C@H](C)OC1=O` [Compound 49]: the figures for the pest or weed control at 121.5 g/ha with Zymoseptoria tritici (setting [3]), in the experiment on Puccinia triticina (setting [4]) and in the experiment with Puccinia triticina (setting [2]) were under 80%, over 80% and under 80%, respectively.
In the case of `COc1ccnc(C(=O)N[C@H]2CCCC[C@H](CC3CCCC3)[C@@H](Oc3ccccc3)[C@H](C)OC2=O)c1OCOC(C)=O` [Compound 50], the pest or weed control at 121.5 g/ha in the experiment with Zymoseptoria tritici (setting [3]) was over 80%; in the experiment on Zymoseptoria tritici (setting [1]), under 80%; in the experiment on Puccinia triticina (setting [4]), over 80%; in the experiment with Puccinia triticina (setting [2]) it was over 80%.
With `CCOCC(=O)OCOc1c(OC)ccnc1C(=O)N[C@H]1CCCC[C@H](CC2CCCC2)[C@@H](Oc2ccccc2)[C@H](C)OC1=O` [Compound 51, ((2-(((3S,8R,9R,10S)-8-(cyclopentylmethyl)-10-methyl-2-oxo-9-phenoxyoxecan-3-yl)carbamoyl)-4-methoxypyridin-3-yl)oxy)methyl 2-ethoxyacetate], the pest or weed control at 121.5 g/ha in the experiment on Zymoseptoria tritici (setting [3]) was over 80%; in the experiment with Puccinia triticina (setting [4]), over 80%; in the experiment on Puccinia triticina (setting [2]), under 80%.
For `COc1ccnc(C(=O)N[C@H]2CCCC[C@H](CC3CCCC3)[C@@H](Oc3ccccc3)[C@H](C)OC2=O)c1OC(C)=O` [Compound 52], the pest or weed control at 121.5 g/ha is over 80% in the experiment with Zymoseptoria tritici (setting [3]), over 80% with Puccinia triticina (setting [4]) and under 80% in the experiment on Puccinia triticina (setting [2]).
Take `C=CCO[C@@H]1[C@@H](CC2CCCC2)CCCC[C@H](NC(=O)c2nccc(OC)c2OCOC(C)=O)C(=O)O[C@H]1C` [Compound 53]: the pest or weed control at 121.5 g/ha in the experiment with Zymoseptoria tritici (setting [1]) and in the experiment on Puccinia triticina (setting [4]) was under 80% in each case.
In the case of `COc1ccnc(C(=O)N[C@H]2CCCC[C@H](CC3CCCC3)[C@@H](OC(=O)C(C)C)[C@H](C)OC2=O)c1OCOC(C)=O` [Compound 54], the results for the pest or weed control at 121.5 g/ha in the experiment with Zymoseptoria tritici (setting [3]), in the experiment on Puccinia triticina (setting [4]) and in the experiment on Puccinia triticina (setting [2]) were over 80%, over 80% and under 80%, respectively.
`CCOCC(=O)OCOc1c(OC)ccnc1C(=O)N[C@H]1CCCC[C@H](CC2CCCC2)[C@@H](OC(=O)C(C)C)[C@H](C)OC1=O` [Compound 55]: the pest or weed control at 121.5 g/ha with Zymoseptoria tritici (setting [3]) was under 80%; in the experiment with Zymoseptoria tritici (setting [1]), under 80%; in the experiment on Puccinia triticina (setting [4]) it was over 80%; in the experiment with Puccinia triticina (setting [2]) it was under 80%.
In the case of `COc1ccnc(C(=O)N[C@H]2CCCC[C@H](CC3CCCC3)[C@@H](OC(=O)C(C)C)[C@H](C)OC2=O)c1OC(C)=O` [Compound 56, (2S,3R,4R,9S)-9-(3-acetoxy-4-methoxypicolinamido)-4-(cyclopentylmethyl)-2-methyl-10-oxooxecan-3-yl isobutyrate], the pest or weed control at 121.5 g/ha with Zymoseptoria tritici (setting [3]) was over 80%; in the experiment on Zymoseptoria tritici (setting [1]), under 80%; in the experiment with Puccinia triticina (setting [4]) it was over 80%; in the experiment with Puccinia triticina (setting [2]), under 80%.
For the compound `CCCO[C@@H]1[C@@H](CC2CCCC2)CCCC[C@H](NC(=O)c2nccc(OC)c2OCOC(C)=O)C(=O)O[C@H]1C` [Compound 57], the pest or weed control at 121.5 g/ha was under 80% in the experiment with Zymoseptoria tritici (setting [3]), over 80% with Puccinia triticina (setting [4]) and under 80% in the experiment with Puccinia triticina (setting [2]).
As to `CCCO[C@@H]1[C@@H](CC2CCCC2)CCCC[C@H](NC(=O)c2nccc(OC)c2OC(C)=O)C(=O)O[C@H]1C` [Compound 58], the pest or weed control at 121.5 g/ha was under 80% in the experiment with Zymoseptoria tritici (setting [3]), under 80% in the experiment on Zymoseptoria tritici (setting [1]), over 80% with Puccinia triticina (setting [4]) and under 80% with Puccinia triticina (setting [2]).
